Experiments:
bacteria = conditions: cited from earlier work
[1] = system: established biofilm in a previously used dental unit
From the text: The experiment consisted of first re-invigorating an established biofilm in a previously used dental unit (A-Dec, a 1980 model) by running tap water, which had been determined to have a bacterial count of 10^4 cfu/mL, through the apparatus at hourly intervals between 9:00 a.m. and 4:00 p.m. for a total of 10 days. […] This limited the organisms monitored to those originating from the biofilm.
Only one bottle was used at a time, either one containing deionized water (filtered through a 0.2 micron filter), or one containing a 1% H2O2 solution (Kroger brand 3%, diluted with deionized water to a 1% solution). Every morning at 9:00 a.m., the H2O2 bottle was connected to the compressed air cylinder and the junction box (which connects the reservoir to the dental cart). The second air cylinder was directly connected to the junction box which provided air to the dental cart tools and allowed the peroxide or water solution to be misted out of the high-speed handpiece to simulate dental office use. Both air cylinders were opened, and H2O2 was run through the unit by pressurizing the bottle. A 50 mL bolus of the H2O2 solution was run through as the line to the dental cart/handpiece holds approximately 40 mL. The H2O2 bottle was then removed, and the bottle containing only water was connected into the set-up in exactly the same way. Approximately 150 mL of water were run through the unit to ensure that all of the H2O2 was rinsed out of the line. For the remainder of the day, to simulate normal operation in a dentist's office where the water is left stagnant 99% of the time, the line was flushed with 150 mL of water every hour. At 4:00 p.m., a 2 mL sample of water was collected from the high-speed handpiece into a 15 mL sterile centrifuge tube (Fisher brand). […] The plates were counted using a MANOSTAT brand colony counter after 2-3 days incubation time at 37° C., selected as the optimal growth temperature for human pathogens.
After the H2O2 treatment, 150 mL of sterile, deionized water was run through the unit at hourly intervals between the hours of 9:00 a.m. and 4:00 p.m. to simulate normal dental office operating conditions, where water is left stagnant most of the time. On day 35, the unit was treated for 4 days with 2% H2O2 in the same manner previously described. This was done to assess the effect of higher concentrations of peroxide on the biofilm.
On day 40, the peroxide treatment procedure was changed slightly. Instead of applying the 2% H2O2 solution in the morning it remained in the dental lines overnight. From 9.00 a.m. to 4 p.m. daily the unit was flushed with 150 mL of sterile water. […] At 9.00 a.m., the following morning, the sterile water flushes began again.
At the end of the day after the last flushing, a 2 mL sample of water was collected from the hand piece. […]

For `OO` [hydrogen peroxide], the “Effect against a broad range of pathogens” value (bacteria; 3%, Juven and Pierson) is listed as “quite effective”, the “Minimum level for use in an acidic sanitizing solution (lowest concentration described as effective as a germicide)” value (bacteria; 21 CFR Part 178.1010 (c) (39), food utensils and food handling surfaces) is listed as ≥ 72 ppm and the “Concentration for bacteriostatic activity” value (bacteria; Juven and Pierson) is listed as 0.0005%. For the same compound, the “Onset of bactericidal activity” value (bacteria; Juven and Pierson) was 0.0034%, the “Concentration required for broad bactericidal action over a short time span (minutes)” value (bacteria; Thomas et. al.) was “at least 0.1%” and the “Concentrations suppressing bacterial growth (bacteriostatic action)” value (bacteria; Thomas et. al.) was ≥ 0.0007%. For the same compound, the “Concentrations of biostatic control” value (bacteria) was < 0.1%, the “Concentrations of efficient biocidal control” value (bacteria) was 1% and the “Concentrations at which it is a potent bacteriostat” value (bacteria; known) was “less than 100 ppm”. For the same compound, the “Level demonstrated to be effective against existing biofilms” value [1] was 2%, the “Microbial load of water from the high-speed handpiece” value ([1]; 1% H2O2 applied in the morning, sample in the afternoon after hourly flushings, initial applications (Region II)) was < 200 cfu/mL and the “Bacterial count of water from the handpiece” value ([1]; 2% H2O2 left in the lines overnight, from day 40 onwards, initial results) was < 200 cfu/mL. The Bacterial cell counts ([1]; 2% solution, applied in the morning, from day 35 for 4 days (Region IV)) was “lower bacterial cell counts than a 1% solution”.

Reference: US6555055B1, “System for preventing and remediating biofilms in dental equipment” (Lynntech, Inc., priority 1998, dated 2003)
